{"source": "patent US9511016B2", "about": "“Topical composition for treating pain” (EpicentRx, Inc., priority 2007, dated 2016)", "key": {"[1]": {"test_system": "Human Patient with Pain", "assay": "Topical treatment of human patients with pain: pain level (x/10), mobility, duration", "type": "in vivo", "conditions": "for Mobility / stiffness after application: patient and treated site of the example or table row cited; for Observation: mobility: Table 5 patient 10, neck pain 5/10"}, "[2]": {"test_system": "Human Patient", "assay": "Systemic effects in human patients after application: breathing, peak expiratory flow, appetite, alertness", "type": "in vivo", "conditions": "patient of the example or table row cited", "from_the_text": "Pluronic gel 20% with lecithin soya/isopropyl myristate was applied to stomach and abdominal wall."}, "[3]": {"conditions": "Ex.27, clonidine then nitropaste"}, "[4]": {"conditions": "Table 7: compression fracture of vertebra"}, "[5]": {"conditions": "Table 7: neck pain and stiffness"}, "[6]": {"conditions": "Table 7: patellofemoral syndrome"}, "[7]": {"conditions": "Table 7: sacroiliac strain, bilateral sacroilitis"}, "[8]": {"conditions": "Table 7: sacroiliac strain, bilateral sacroilitis, listed as Albuterol inhaler"}, "[9]": {"conditions": "Table 7: back, leg, joint, hip, toe, knee pain"}}, "note": "Several values for one entry are separate records, joined by “and”; a condition that tells them apart may be missing. Equal entries are not always repeated."}
{"molecule": "COc1cc(CNC(=O)CCCC/C=C/C(C)C)ccc1O", "note": "[capsaicin]", "values": [{"measurement": "Overall analgesic effect (general statement)", "setting": "[1]; across patients", "value": "did not have much of an effect except in a few patients"}]}
{"molecule": "Clc1cccc(Cl)c1N=C1NCCN1", "note": "[Clonidine]", "values": [{"measurement": "Pain level", "setting": "[1]; Ex.11 right arm neuroma with phantom limb, initial 4/10, in series", "value": "pain completely disappeared"}, {"measurement": "Pain level", "setting": "[1]; Ex.17 left rotator cuff impingement and bursitis, initial printed 5110", "value": "Pain disappeared"}, {"measurement": "Pain level", "setting": "[1]; Ex.20 ischial gluteal bursitis, initial 9/10, clonidine then nitropaste", "value": "5/10"}, {"measurement": "Pain level", "setting": "[1]; Ex.20 right knee osteoarthritis, from 9/10, clonidine then nitropaste", "value": "8/10"}, {"measurement": "Pain level", "setting": "[1]; Ex.20 right wrist carpal tunnel, initial 9/10, nitropaste then clonidine paste", "value": "3/10"}, {"measurement": "Pain level", "setting": "[1]; Ex.20 trochanteric bursitis, initial 9/10, clonidine then nitropaste", "value": "5/10"}, {"measurement": "Pain level", "setting": "[1]; Ex.21 bilateral sacroiliac strain, initial 9/10, in series", "value": "5/10"}, {"measurement": "Pain level", "setting": "[1]; Ex.22 bilateral rotator cuff tear, initial printed 8.5410", "value": "no effect"}, {"measurement": "Pain level", "setting": "[1]; Ex.23 thoracalgia, initial 8/10", "value": "no effect"}, {"measurement": "Pain level", "setting": "[1]; Ex.24 left patellofemoral syndrome, initial 7/10, in series", "value": "3/10"}, {"measurement": "Pain level", "setting": "[1]; Ex.25 left trochanteric bursitis, initial 7/10", "value": "disappeared"}, {"measurement": "Pain level", "setting": "[1]; Ex.25 right thumb osteoarthritis, initial 2/10, in series", "value": "stayed the same"}, {"measurement": "Pain level", "setting": "[1]; Ex.26 L3 vertebral compression fracture, initial 6/10, in series", "value": "4/10"}, {"measurement": "Pain level", "setting": "[1]; Ex.27 neck stiffness and pain, radiculopathy, initial about 6/10", "value": "pain disappeared"}, {"measurement": "Head rotation to left", "setting": "[1]; [3]", "value": 70, "unit": "degrees"}, {"measurement": "Head rotation to right", "setting": "[1]; [3]", "value": 75, "unit": "degrees"}, {"measurement": "Pain level", "setting": "[1]; Ex.28 left knee, initial 6/10, nitrobid then clonidine", "value": "pain also disappeared"}, {"measurement": "Pain level", "setting": "[1]; Ex.28 right knee osteoarthritis/patellofemoral syndrome, initial 6/10, clonidine then nitrobid", "value": "3/10"}, {"measurement": "Pain level", "setting": "[1]; Ex.30 diabetic lower extremity neuropathy, initial 7/10, in series", "value": "5/10"}, {"measurement": "Pain Level, CD", "setting": "[1]; Table 1 part II: after clonidine paste (first step), listed as CD", "value": "3/10 and 7/10 and 6/10"}, {"measurement": "% Change in Pain level", "setting": "[1]; [4]", "value": 33, "unit": "%"}, {"measurement": "EFFECT ON PAIN LEVEL/% change", "setting": "[1]; [4]", "value": "From 6/10 to 4/10, No"}, {"measurement": "% Change in Pain level, total over successive treatments (marked *)", "setting": "[1]; Table 7: migraine and tension headache", "value": "*100%"}, {"measurement": "EFFECT ON PAIN LEVEL/% change", "setting": "[1]; Table 7: migraine, tension headache, cluster headache, headache", "value": "0/10"}, {"measurement": "% Change in Pain level", "setting": "[1]; [5]", "value": 100, "unit": "%"}, {"measurement": "EFFECT ON PAIN LEVEL/% change", "setting": "[1]; [5]", "value": "From 6/10 to 0/10"}, {"measurement": "% Change in Pain level, total over successive treatments (marked *)", "setting": "[1]; Table 7: osteoarthritis", "value": "*100%;"}, {"measurement": "EFFECT ON PAIN LEVEL/% change", "setting": "[1]; Table 7: osteoarthritis", "value": "No change and From 6/10 to 3/10 and 6/10 to 0/10"}, {"measurement": "% Change in Pain level", "setting": "[1]; [6]", "value": 40, "unit": "%"}, {"measurement": "% Change in Pain level, total over successive treatments (marked *)", "setting": "[1]; [6]", "value": 57, "unit": "%"}, {"measurement": "EFFECT ON PAIN LEVEL/% change", "setting": "[1]; [6]", "value": "From 5/10 to 3/10"}, {"measurement": "EFFECT ON PAIN LEVEL/% change", "setting": "[1]; Table 7: rotator cuff tendinopathy, rotator cuff tear, shoulder pain, listed as Clonidine paste", "value": "From 3/10 to 0/10"}, {"measurement": "% Change in Pain level", "setting": "[1]; Table 7: rotator cuff tendinopathy, tear, shoulder pain, listed as Clonidine paste", "value": 100, "unit": "%"}, {"measurement": "EFFECT ON PAIN LEVEL/% change", "setting": "[1]; Table 7: trochanteric bursitis", "value": "From 7/10 to 0/10"}, {"measurement": "Mobility / stiffness after application", "setting": "[1]", "value": "improved flexibility"}, {"measurement": "Mobility / stiffness after application", "setting": "[1]; listed as Clonidine paste", "value": "improved mobility and range of motion"}, {"measurement": "Duration of pain relief", "setting": "[1]; patient of the example cited", "value": 6, "unit": "h"}, {"measurement": "Persistence of pain relief at follow-up", "setting": "[1]; patient of the example cited", "value": "A day later patient reported that their knee pain was still reduced"}, {"measurement": "Time to decrease of pain", "setting": "[1]; patient of the example cited", "value": 5, "unit": "min"}, {"measurement": "Time to decrease of pain", "setting": "[1]; patient of the example cited, listed as clonidine", "value": "≤ 10", "unit": "min"}]}
{"molecule": "CCCCCCCCCCCCOS(=O)(=O)[O-].[Na+]", "note": "[SDS 20%, Sodium dodecyl sulfate]", "values": [{"measurement": "Systemic effects noted (alertness, appetite, breathing, congestion, sweating, secretions)", "setting": "[2]; listed as SDS, sulfate", "value": "improvement in breathing"}]}
{"molecule": "CC(C)NCC(O)COc1ccc(CC(N)=O)cc1", "note": "(centres unmarked) [Atenolol]", "values": [{"measurement": "Pain level", "setting": "[1]; Ex.10 thoracalgia, left side, initial 5/10, in series", "value": "pain completely disappeared"}, {"measurement": "Pain level", "setting": "[1]; Ex.10 thoracalgia, right side, initial 5/10, in series", "value": "2/10"}, {"measurement": "Pain level", "setting": "[1]; Ex.4 hammer toes, halux valgus and rigiditus, initial 7/10, in series", "value": "no effect"}, {"measurement": "Pain level", "setting": "[1]; Ex.5 hip, trochanteric bursitis, initial 8/10, in series", "value": "6/10"}, {"measurement": "Pain level", "setting": "[1]; Ex.5 knee osteoarthritis, initial 8/10", "value": "5/10"}, {"measurement": "Pain level", "setting": "[1]; Ex.8 hip, trochanteric bursitis, initial 8/10, in series", "value": "no change"}, {"measurement": "% Change in Pain level", "setting": "[1]; Table 7: osteoarthritis", "value": 37.5, "unit": "%"}, {"measurement": "EFFECT ON PAIN LEVEL/% change", "setting": "[1]; Table 7: osteoarthritis", "value": "From 8/10 to 5/10"}, {"measurement": "% Change in Pain level", "setting": "[1]; [7]", "value": 0, "unit": "%"}, {"measurement": "EFFECT ON PAIN LEVEL/% change", "setting": "[1]; [7]", "value": "No change"}, {"measurement": "% Change in Pain level", "setting": "[1]; Table 7: trochanteric bursitis", "value": 25, "unit": "%"}, {"measurement": "EFFECT ON PAIN LEVEL/% change", "setting": "[1]; Table 7: trochanteric bursitis", "value": "From 8/10 to 6/10"}]}
{"molecule": "Tween 80", "values": [{"measurement": "Systemic effects noted (alertness, appetite, breathing, congestion, sweating, secretions)", "setting": "[2]", "value": "improvement in breathing"}, {"measurement": "Observation: mobility", "setting": "[1]", "value": "More mobility"}]}
{"molecule": "CC(C)(C)NCC(O)c1ccc(O)c(CO)c1", "note": "(centres unmarked) [albuterol inhaler, albuterol]", "values": [{"measurement": "Pain level", "setting": "[1]; Ex.34 V(a) left heel (no gel), initial 8/10, inhalers in series", "value": "6/10"}, {"measurement": "Pain level", "setting": "[1]; Ex.34 V(a) left heel, albuterol inhaler given again (from 5/10)", "value": "3/10"}, {"measurement": "Pain level", "setting": "[1]; Ex.34 V(a) right heel (PLO gel applied here), initial 8/10, then inhalers in series", "value": "4/10"}, {"measurement": "Pain level", "setting": "[1]; Ex.34 V(a) right heel, albuterol inhaler given again (from 3/10)", "value": "2/10"}, {"measurement": "Pain level", "setting": "[1]; Ex.34 V(c) lower back pain over coccyx, initial 8/10, in series", "value": "no change in their back pain"}, {"measurement": "Pain level", "setting": "[1]; Ex.34 V(c) neck pain and stiffness, initial 5/10, in series", "value": "2/10"}, {"measurement": "Pain level", "setting": "[1]; Ex.34 V(e) sacroiliac strain, initial 8.5/10, in series", "value": "4/10"}, {"measurement": "Pain level", "setting": "[1]; Ex.34 V(f) midback pain, initial 7/10", "value": "without any change"}, {"measurement": "Pain level", "setting": "[1]; Ex.34 V(h) possible lower lumbar compression fracture, initial 5/10, in series", "value": "6/10"}, {"measurement": "EFFECT ON PAIN LEVEL/% change", "setting": "[1]; [5]", "value": "2/10"}, {"measurement": "% Change in Pain level, total over successive treatments (marked *)", "setting": "[1]; [7]", "value": 53, "unit": "% to"}, {"measurement": "% Change in Pain level", "setting": "[1]; [8]", "value": 20, "unit": "%"}, {"measurement": "EFFECT ON PAIN LEVEL/% change", "setting": "[1]; [8]", "value": "From 5/10 to 4/10"}, {"measurement": "% Change in Pain level", "setting": "[1]; Table 7: sacroiliac strain, bilateral sacroilitis, listed as albuterol", "value": 0, "unit": "%"}]}
{"molecule": "CC(O)CO", "note": "(centres unmarked) [Propylene glycol]", "values": [{"measurement": "Observation (pain)", "setting": "[1]; Table 5", "value": "No effect"}]}
{"molecule": "Tween 20", "values": [{"measurement": "Observation: mobility", "setting": "[1]", "value": "Increased mobility"}]}
{"molecule": "Triton x100", "values": [{"measurement": "Observation: mobility", "setting": "[1]", "value": "Slight increase in mobility"}]}
{"molecule": "OCC(O)CO", "note": "[GP, Glycerin]", "values": [{"measurement": "Observation (pain)", "setting": "[1]; Table 4, components marked +, complaint and initial level in the same row, plus anhydrous lanolin", "value": "Pain disappeared"}, {"measurement": "Observation (pain)", "setting": "[1]; Table 5", "value": 10, "unit": "No effect on knee"}, {"measurement": "Observation (pain)", "setting": "[1]; Table 5, listed as Glycerin pure", "value": "1/10"}, {"measurement": "% Change in Pain level", "setting": "[1]; [9]", "value": 0, "unit": "%"}, {"measurement": "EFFECT ON PAIN LEVEL/% change", "setting": "[1]; [9]", "value": "No Change, then from 8/10"}, {"measurement": "% Change in Pain level", "setting": "[1]; Table 7: osteoarthritis", "value": 16.7, "unit": "%"}, {"measurement": "% Change in Pain level", "setting": "[1]; Table 7: tarsal tunnel, carpal tunnel syndrome, wrist pain", "value": 0, "unit": "%"}]}
